Tests used:
[1] = molecular target: T1, HLA-A^*0201 (Homo sapiens, UniProt P04439, D140Y/D185E/D98H/E176V/E277Q/G131W/G231S/I119V/I121R/I166T/I218V/L300P/L318F/N151K/N90K/P208A/P217A/Q86G/Q94H/R138H/R169H/T345S); assay: Fluorescence-based competition assay on B-cell lines LCL721 or JY; conditions: inhibition of binding of reporter peptide ILK(FITC)EPVHGV relative to positive control peptide YLLPAIVHI set as 100%; all peptides at 10 μM; LCL721 or JY cells, no acid strip; flow cytometry
T1 construct: endogenous in cells; host or cells: B-cell lines LCL721 or JY
Experimental: Binding studies of potential HLA-A^*0201 fitting peptides were carried out using the B-cell lines LCL721 or JY and a fluorescence-based competition assay, essentially as described by [van der Burg et al (1995)], but without performing acid strip. Reporter peptide was ILK(FITC)EPVHGV from HIV-1 reverse transcriptase and positive control was […] from RNA helicase p72. Fluorescence intensities were recorded by flow cytometry (FACSCALIBUR; Becton Dickinson, Heidelberg, Germany).

[2] = test system: prostein mRNA expression in LNCaP 1740 cells; assay: Quantitative RT-PCR of prostein transcripts in LNCaP 1740 cells under androgen deprivation or stimulation; assay type: cell-based, human; conditions: 1 nM R1881 for 48 h; real-time PCR normalised to HPRT; means of two LC runs
Experimental: (§1) The androgen deprivation and stimulation experiments were performed as described previously ([Xu et al, 2001]). Briefly, LNCaP 1740 cells were cultured for 24 h in phenol red-free RPMI (Life Technologies) supplemented with 1% nonessential amino acids, 10 mM HEPES (Life Technologies) and 10% charcoal-stripped FCS (Biochrom). The cultivation was continued for additional 48 h in the androgen-depleted medium or in the presence of 1 nM of the synthetic androgen R1881 (Perkin-Elmer Life Sciences, Rodgau-Jügesheim, Germany). Subsequently, the cells were harvested and were used as target cells in a chromium release assay.
The mRNA quantity of prostein was determined using a LightCycler (LC)-based real-time PCR protocol based on SYBR Green I detection (LC – FastStart DNA Master SYBR Green I; Roche Diagnostics, Mannheim, Germany) and the primer pair Prostein_N1 (5′-[…]-3′) and Prostein_C1 (5′-[…]-3′) to amplify a 240 bp cDNA fragment spanning two exons.
The mRNA copy number was adjusted to the RT–PCR product quantity of hypoxanthine phosphoribosyltransferase (HPRT) determined by LC technique using the primer pair HPRT_N1 (5′-[…]-3′) and HPRT_C1 (5′-[…]-3′) for the amplification of a 238 bp fragment. […]

[3] = test system: LNCaP 1740 cells; assay: 51Cr release assay: peptide-activated CD8+ T cells against LNCaP 1740 cells; assay type: cell-based, human
Experimental: as §1, with “Briefly,” for “The androgen deprivation and stimulation experiments were performed as described previously ([Xu et al, 2001]). Briefly,”
After washing 2 × 10^5 peptide-loaded DCs were cocultured with 2 × 10^6 immunomagnetically isolated CD8+ T cells well^−1 of a 24-well tissue culture plate (Greiner, Frickenhausen, Germany). […] After 7 days, cultures were washed and restimulated with peptide-loaded DCs at a responder to stimulator ratio of 5 : 1. After three rounds of weekly restimulation, the cultures were tested for the presence of prostein-specific CTLs.
The HLA-A2 restriction of CD8+ T-cell-mediated lysis was tested at an effector cell to target cell ratio of 30 : 1 in the presence of the anti-HLA-A2 monoclonal antibody derived from the MA2.1 hybridoma (American Type Culture Collection) at a final concentration of 1 μg ml^−1.

[4] = test system: K562 cells; assay: 51Cr release assay: peptide-activated CD8+ T cells against K562 cells; assay type: cell-based, human; conditions: E:T 3:1, 10:1, 30:1; 4 h 51Cr release
Experimental: (§2) After washing 2 × 10^5 peptide-loaded DCs were cocultured with 2 × 10^6 immunomagnetically isolated CD8+ T cells well^−1 of a 24-well tissue culture plate (Greiner, Frickenhausen, Germany). […] The T cells were cultured in 2 ml RPMI 1640 medium well^−1 supplemented with 10% human serum (CCpro, Neustadt, Germany), 100 U ml^−1 IL-2 and 10 ng ml^−1 IL-7 (both from Strathmann Biotech, Hanover, Germany). After 7 days, cultures were washed and restimulated with peptide-loaded DCs at a responder to stimulator ratio of 5 : 1. After three rounds of weekly restimulation, the cultures were tested for the presence of prostein-specific CTLs.
Cytotoxic activity of the in vitro-stimulated CTLs was assayed against the HLA-A^*0201-positive mutant cell line T2 pulsed with the individual prostein-derived peptides or an irrelevant HLA-A^*0201-binding peptide from HIV-1 reverse transcriptase at a concentration of 50 μg ml^−1, against the PCa cell line LNCaP 1740, the melanoma cell line 93.04A12.1 and against K562 cells as targets in a 4 h standard ^51Cr release assay as described previously ([Kiessling et al, 2002]). The HLA-A2 restriction of CD8+ T-cell-mediated lysis was tested at an effector cell to target cell ratio of 30 : 1 in the presence of the anti-HLA-A2 monoclonal antibody derived from the MA2.1 hybridoma (American Type Culture Collection) at a final concentration of 1 μg ml^−1.

[5] = test system: T2 cells pulsed with the individual peptides; assay: 51Cr release assay: in vitro-stimulated CD8+ T cells against peptide-pulsed T2 cells; assay type: cell-based, human; conditions: CD8+ T cells stimulated four times with peptide-pulsed autologous DCs (20 μg ml^-1 of each peptide); T2 cells pulsed at 50 μg ml^-1; E:T 20:1; 4 h 51Cr release; triplicates
Experimental: Briefly, peripheral blood mononuclear cells were prepared from blood samples by Ficoll–Hypaque (Biochrom) density centrifugation. Monocytes were isolated by immunomagnetic cell separation with an anti-CD14 antibody coupled to paramagnetic microbeads (Miltenyi Biotech, Bergisch Gladbach, Germany) according to the manufacturer's instructions. Mature monocyte-derived dendritic cells (DCs) were generated as described previously ([Schmitz et al, 2000]).
as §2, with “CTLs. […]” for “CTLs.”

Compound	rBA (%) relative binding affinity [1] [%]	Prostein mRNA expression in LNCaP 1740 under androgen deprivation compared with cells cultured in the presence of R1881 [2]	T-cell-mediated cytotoxicity against LNCaP 1740 cells deprived of androgen compared with cells grown in the presence of R1881 ([3]; 1 nM R1881 for 48 h after 24 h in charcoal-stripped FCS medium, E:T 30:1, all three donors)	Lysis of LNCaP 1740 cells by CTLs specifically recognising the peptide ([3]; HLA-A*0201-positive, prostein-expressing PCa cell line, E:T 3:1, 10:1, 30:1, 4 h 51Cr release, three donors)	Lysis of K562 cells by peptide-activated T cells (natural killer cell-like activity) [4]	Induction of peptide-specific CTLs (specific lysis of peptide-loaded T2 cells) [5]
ALLPRLHQL [compound 1487]	84.1	–	–	–	–	–
C[C@]1(O)CC[C@H]2[C@@H]3CCC4=CC(=O)CCC4=C3C=C[C@@]21C [R1881, reference compound]	–	downregulated but still detectable	clearly reduced	–	–	–
CLAAGITYV [compound 2004]	94.0	–	–	capable of lysing	failure	induced specific CTLs in all three donors tested

Reference: article PMC2410218, “Identification of an HLA-A^*0201-restricted T-cell epitope derived from the prostate cancer-associated protein prostein” (British Journal of Cancer, 2004)
